Experimental data reported in patent EP0443996B1, “Esters of (R)(-)-carnitine and acyl (R)(-)-carnitines with beta-hydroxybutyric acid and pharmaceutical compositions containing them for inhibiting neuronal degeneration, liver proteolysis and for the treatment of coma” (Sigma-Tau Industrie Farmaceutiche Riunite S.p.A., priority 1990, dated 1991).

Tests used:
[1] = tested on: post-oligaemic rats; test: Cerebral oedema upon brain excision 77 hours post-oligohaemia; format: in vivo, Sprague-Dawley (Iffa Credo) male rats; settings: survivors
Protocol: (§1) The study was conducted with a view to assessing the therapeutical effect of ST 687 administered i.p. to rats immediately after the effect of a transient forebrain oligohaemia in the experiment animals were detected. In particular, the propensity of post-oligaemic rats to develop conditioning was studied in a one-trial passive avoidance task. Concurrently, the neurologic deficit during a 3-day period following the ischaemic insult was assessed, and finally the extent of the oedema was assessed by measuring the water content of the cerebral tissue.
(§2) In the experiments Sprague-Dawley (Iffa Credo) male rats weighing 230-250 g were used, that had been caged (5 rats/cage) under conditions of controlled temperature (22°C±1°C), 50% relative humidity and 12-hours dark-light cycle (light on from 8 a.m. to 8 p.m.). The rats were fed UAR (Epinay Orge, France) laboratory chow and had free access to tap water. The rats were caged for 5 days before surgery.
(§3) Under light ether anesthesia, carotid arteries were isolated and loosely surrounded by a thread. Twenty-four hours later, reversible incomplete forebrain ischemia was produced by bilateral common carotid artery occlusion combined with sodium nitroprusside-induced arterial hypotension (1.1 mg/rat s.c.). Mean arterial blood pressure (MABP) was lowered and maintained nearby 6.6 kPa for 45 min. Then it gruadually returned to normal within the 60th minute when carotid occlusion was removed.
Immediately after the last retention trial, i.e. 77 hours post-oligohaemia, rats were sacrificed by decapitation, their brains rapidly removed and macroscopically examined in terms of swelling. Brain water content was determined by the method wet weight/dry weight.

[2] = tested on: post-oligaemic rats; test: One-trial passive avoidance task (retention of conditioned response); format: in vivo, Sprague-Dawley (Iffa Credo) male rats
Protocol: as §1, §2, §3
The functional aspects of the cerebral ischemic injury were assessed by a one trial learning procedure (passive avoidance reaction) as originally described by Kurtz K. H. e Pearl J.: The effects of prior fear experience in acquired drive learning. J. Comp. Physiol, Psychol, 1960, 53 : 201-206, and more extensively developed by Buresova et al.: Effect of atropine on learning, extinction, retention and retrieval in rats. Psychopharmacologia, 1964, 5 : 255-263.
Four hours after clipping-off untreated post-oligaemic rats were placed into an apparatus consisting of a large illuminated compartment (40 x 40 cm) connected by an opening to a small dark compartment (10 x 10 cm) with an electrified grid floor. The animals placed into the large compartment were allowed to explore the apparatus for three minutes. The latency to enter and the time spent in the small compartment were measured with a stop watch. Habituation to the experimental conditions was repeated 24 and 29 hours after ischemia. At the end of the third habituation trial, the opening between the two compartments was closed and the rat, placed into the small compartment, received intermittent electrical foot-shocks for one minute. The retention of the passive avoidance towards the small compartment was tested 24 and 48 hours after the last habituation trial i.e. 53 and 77 hours post-oligohaemia, respectively. The criterion used to determine whether an animal was conditioned was based upon the rat remaining in the large illuminated compartment for 180 sec. without entry into the small dark compartment.

[3] = tested on: post-oligaemic rats; test: Death rate after transient forebrain oligohaemia; format: in vivo, Sprague-Dawley (Iffa Credo) male rats
Protocol: as §1, §2, §3

[4] = tested on: acetaminophen (paracetamol)-induced hepatic damage; test: Protection against acetaminophen (paracetamol)-induced hepatic damage, serum transaminases; format: in vivo, Male Wistar rats; settings: SGOT and SGPT in blood serum; 101 mg/kg body weight orally 1, 8 and 24 hours after paracetamol 1 g/kg per os; sacrifice at 32 hours; with respect to the control animals
Protocol: Male Wistar rats weighing 200-250 g (15 rats/group) that had been keept fasting for at least 12 hours, were administered a single dose of paracetamol (1 g/kg body weight, per os). 100 g paracetamol were dissolved in 1000 ml of 5% (w/v) carboxymethylcellulose suspension in water. […] 101 mg ST 784/kg body weight were administered orally (as aqueous solution) 1, 8 and 24 hours, respectively, following paracetamol administration. The animals were sacrificed 32 hours following paracetamol administration.
Transaminases (SGOT and SGPT) were measured in blood serum. ST 784 provoked a decrease in transaminases exceding 60% ([…]) with respect to the control animals.

CC(=O)O[C@H](CC(=O)[O-])C[N+](C)(C)C [Acetyl (R)(-)-carni-tine, acetyl (R)(-)-carnitine, reference compound]
Incidence of cerebral oedema upon excision (3) ([1]; 12,5 mg. kg i.p. twice a day): 80,0
Incidence of cerebral oedema upon excision (3) ([1]; 25,0 mg. kg i.p. twice a day): 60,0
Incidence of cerebral oedema upon excision (3) ([1]; 50,0 mg. kg i.p. twice a day): 90,0
Incidence of retention of conditioned response (%) ([2]; 12,5 mg. kg i.p. twice a day, + 53 h): 80,0%
Incidence of retention of conditioned response (%) ([2]; 12,5 mg. kg i.p. twice a day, + 77 h): 80,0%
Incidence of retention of conditioned response (%) ([2]; 25,0 mg. kg i.p. twice a day, + 53 h): 60,0%
Incidence of retention of conditioned response (%) ([2]; 25,0 mg. kg i.p. twice a day, + 77 h): 70,0%
Incidence of retention of conditioned response (%) ([2]; 50,0 mg. kg i.p. twice a day, + 53 h): 70,0%
Incidence of retention of conditioned response (%) ([2]; 50,0 mg. kg i.p. twice a day, + 77 h): 50,0%
Death rate after 72 hours (%) ([3]; 12,5 mg. kg i.p. twice a day): 33,3%
Death rate after 72 hours (%) ([3]; 25,0 mg. kg i.p. twice a day): 41,2%
Death rate after 72 hours (%) ([3]; 50,0 mg. kg i.p. twice a day): 50,0%

CC(CC(=O)O)OC(=O)CC(O)C[N+](C)(C)C (racemic) [ST 784, ester of R(-)-carnitine chloride with R,S(±)beta-hydroxybutyric acid]
decrease in transaminases [4]: > 60%

ester of isovaleryl (R)(-)-carnitine chloride with (R,S)(±)-beta-hydroxybutyric acid [ST 687]
Incidence of cerebral oedema upon excision (3) ([1]; 2,5 mg. kg i.p. twice a day): 80,0
Incidence of cerebral oedema upon excision (3) ([1]; 5,0 mg. kg i.p. twice a day): 50,0
Incidence of cerebral oedema upon excision (3) ([1]; 7,5 mg. kg i.p. twice a day): 66,7
Incidence of retention of conditioned response (%) ([2]; 2,5 mg. kg i.p. twice a day, + 53 h): 20,0%
Incidence of retention of conditioned response (%) ([2]; 2,5 mg. kg i.p. twice a day, + 77 h): 40,0%
Incidence of retention of conditioned response (%) ([2]; 5,0 mg. kg i.p. twice a day, + 53 h): 60,0%
Incidence of retention of conditioned response (%) ([2]; 5,0 mg. kg i.p. twice a day, + 77 h): 60,0%
Incidence of retention of conditioned response (%) ([2]; 7,5 mg. kg i.p. twice a day, + 53 h): 53,3%
Incidence of retention of conditioned response (%) ([2]; 7,5 mg. kg i.p. twice a day, + 77 h): 66,7%
Death rate after 72 hours (%) ([3]; 2,5 mg. kg i.p. twice a day): 47,4%
Death rate after 72 hours (%) ([3]; 5,0 mg. kg i.p. twice a day): 37,5%
Death rate after 72 hours (%) ([3]; 7,5 mg. kg i.p. twice a day): 62,5%
